Here are results for 1 compound from patent US5635510A, “Substituted pyrrolidin-3-yl-alkyl-piperidines” (Merrell Pharmaceuticals Inc., priority 1994, dated 1997).

Experiment [1] deals with T1, human jejunal NK2 receptor (Homo sapiens, UniProt P21452).
T1 construct: expressed in transfected cells; host or cells: HSKR-1 cells (mouse 3T3 fibroblasts)
T1 sequence (P21452 1-398): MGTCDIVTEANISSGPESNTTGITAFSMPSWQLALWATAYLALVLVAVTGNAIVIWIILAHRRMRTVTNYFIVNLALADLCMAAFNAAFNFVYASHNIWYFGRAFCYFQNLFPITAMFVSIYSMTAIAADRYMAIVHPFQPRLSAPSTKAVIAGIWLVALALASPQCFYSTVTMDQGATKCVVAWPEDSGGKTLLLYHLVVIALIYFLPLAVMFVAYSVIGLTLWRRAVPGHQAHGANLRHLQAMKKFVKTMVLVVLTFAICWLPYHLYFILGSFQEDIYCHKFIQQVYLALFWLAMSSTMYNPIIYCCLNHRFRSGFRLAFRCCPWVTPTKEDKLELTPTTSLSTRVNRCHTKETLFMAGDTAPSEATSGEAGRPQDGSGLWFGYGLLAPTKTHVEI
The experiment can be described thus: Antagonism of iodinated neurokinin A binding to NK2 receptor, HSKR-1 cells (mouse 3T3 fibroblasts expressing the human jejunal NK2 receptor). The following applies: NK-2 IC50, HSKR-1 cells, 125I-neurokinin A, mean of several experiments. On the procedure: (§1) ANTAGONISM OF IODINATED TACHYKININ BINDING TO NK1 AND NK2
(§2) RECEPTORS BY PUTATIVE ANTAGONISTS
(§3) The NK1 receptor affinity of proposed tachykinin antagonists was evaluated in guinea pig lungs (Keystone Biologicals, Cleveland, OH), affinity for the NK2 receptor evaluated in HSKR-1 cells (which are mouse 3T3 fibroblasts expressing the human jejunal NK2 receptor) and NK-3 receptor affinity was evaluated in freshly collected guinea pig cerebral cortex. Tissues or cells were homogenized with a Polytron in 15 volumes of 50 mM Tris-HCl buffer (pH 7.4, 4° C.) and centrifuged. The pellet was resuspended in Tris-HCl buffer and was centrifuged; the pellet was washed twice by resuspension. The final pellet was resuspended at a concentration of 40 mg/ml for tissues (guinea pig lung and cerebral cortex) and 20 mg/ml for cells in incubation buffer and remained at room temperature for at least 15 min prior to use. Receptor binding was initiated by addition of 250 ul membrane preparation in duplicate to 0.1 nM of the following radioligands: ^125 I-Bolton Hunter Lys-3 labeled substance P; ^125 iodohistidyl-1-neurokinin A; and ^125 I-Bolton Hunter labeled Lys-4 eledoisin in a final volume of 500 ul of buffer containing 50 mM Tris-HCl (pH 7.4 at room temperature), 0.1% bovine serum albumin, 2 mM MnCl2, 40 ug/ml bacitracin, 4 μg/ml leupeptin and chymostatin, 1 μM thiorphan and various doses of the putative tachykinin antagonists. Incubations were performed at room temperature for 90 min (NK1 receptor assays) or 2 hr (NK2 and NK3 receptor assays); binding was terminated by addition of 50 mM Tris-HCl buffer (pH 7.4, 4° C.) and filtration under vacuum through GF/B filters presoaked with 0.1% polyethyleneimine (NK1 receptor assays) or 0.5% bovine serum albumin (NK2 and NK3 receptor assays). Filter bound radioactivity was quantitated in a gamma counter. Nonspecific binding was defined as binding in the presence of 1 μM substance P, neurokinin A, or eledoisin. Specific binding was calculated by subtracting nonspecific binding from total binding. Competition of iodinated SP, NKA, or eledoisin binding by test compounds or standards was expressed as a percentage of this maximum competition. IC50 values (concentration required to inhibit 50% of receptor binding) were generated for each of the test compounds by nonlinear regression using an iterative curve fitting program (GraphPAD Inplot, San Diego, Calif.).

The next experiment has as its target T2, NK1 receptor (Cavia porcellus, UniProt P30547).
T2 construct: evaluated in guinea pig lungs; tissue Keystone Biologicals, Cleveland, OH; host or cells: guinea pig lung
The experiment can be described thus: Antagonism of iodinated substance P binding to NK1 receptor, guinea pig lung. The following applies: NK-1 IC50, guinea pig lung, 125I-substance P, mean of several experiments. On the procedure: as §1, §2, §3

For the next experiment, the target named is T3, NK-3 receptor (Cavia porcellus, UniProt P30098).
T3 construct: evaluated in freshly collected guinea pig cerebral cortex; from tissue; host or cells: guinea pig cerebral cortex
T3 sequence (P30098 1-440): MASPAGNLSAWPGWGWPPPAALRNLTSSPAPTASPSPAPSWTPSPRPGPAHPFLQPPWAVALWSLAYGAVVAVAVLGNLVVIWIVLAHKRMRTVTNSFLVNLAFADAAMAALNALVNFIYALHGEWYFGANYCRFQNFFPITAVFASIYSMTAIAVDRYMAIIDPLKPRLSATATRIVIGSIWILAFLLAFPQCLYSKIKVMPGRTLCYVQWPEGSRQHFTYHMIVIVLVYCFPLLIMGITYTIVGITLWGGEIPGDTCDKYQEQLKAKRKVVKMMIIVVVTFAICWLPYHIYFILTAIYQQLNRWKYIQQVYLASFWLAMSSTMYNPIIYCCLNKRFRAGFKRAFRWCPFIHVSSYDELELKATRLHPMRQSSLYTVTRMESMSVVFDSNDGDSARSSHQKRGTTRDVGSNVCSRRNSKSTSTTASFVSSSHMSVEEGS
The experiment is described as follows: Antagonism of iodinated eledoisin binding to NK3 receptor, guinea pig cerebral cortex. The following applies: NK-3 IC50, guinea pig cerebral cortex, 125I-eledoisin, mean of several experiments. The method, then:
as §1, §2
as §3, with “Nonspecific binding was defined as binding in the presence of 1 μM substance P, neurokinin A, or eledoisin.” left out, “IC50 values (concentration required to inhibit 50% of receptor binding) were generated for each of the test compounds by nonlinear regression using an iterative curve fitting program (GraphPAD Inplot, San Diego, Calif.).” left out

Broadly, the IC50 is the point on the concentration scale where inhibition reaches its midpoint.

T2 sequence (P30547 whole entry): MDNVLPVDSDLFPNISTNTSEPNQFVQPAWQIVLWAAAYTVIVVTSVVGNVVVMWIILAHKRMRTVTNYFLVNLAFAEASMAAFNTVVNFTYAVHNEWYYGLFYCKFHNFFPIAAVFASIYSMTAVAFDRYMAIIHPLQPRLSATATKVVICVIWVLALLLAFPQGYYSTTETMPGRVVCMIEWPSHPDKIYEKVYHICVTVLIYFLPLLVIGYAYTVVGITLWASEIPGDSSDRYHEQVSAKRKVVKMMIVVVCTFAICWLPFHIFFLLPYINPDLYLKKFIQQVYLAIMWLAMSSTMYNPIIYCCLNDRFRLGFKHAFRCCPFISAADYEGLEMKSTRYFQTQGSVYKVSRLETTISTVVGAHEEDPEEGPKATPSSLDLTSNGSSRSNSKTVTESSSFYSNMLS

In the case of `COc1cc(C(=O)N2CCC(CCN3CCC(C(N)=O)(c4ccccc4)CC3)(c3ccc(Cl)c(Cl)c3)C2)cc(OC)c1OC` (single isomer, unassigned; (-)) [Example 21, (-)-1-[2-[3-(3,4-dichlorophenyl)-1-(3,4,5-trimethoxy-benzoyl)-pyrrolidin-3-yl]-ethyl]-4-phenyl-piperidine-4-carboxylic acid amide], the values for the IC50 (in experiment [1]; at NK1 receptor; at NK-3 receptor) were 760 nM, 183 nM and 2300 nM, respectively.
